Assays:
CYP3A4 = tested on: CYP3A4; design: method as in unpublished data; details: ref unpublished data; cited from earlier work
Caco‐2 monolayers = tested on: Caco‐2 monolayers; design: method as in unpublished data; details: ref unpublished data; cited from earlier work
[1] = Phase 1 part B: safety (TEAEs); type: in vivo, human; details: for Any TEAE / Serious TEAE / Severe TEAE / TEAE leading to death / TEAE leading to discontinuation / Abdominal pain upper (TEAE by preferred term) / Decreased appetite (TEAE by preferred term) / Dry skin (TEAE by preferred term) / Headache (TEAE by preferred term) / Skin exfoliation (TEAE by preferred term) / Skin lesion (TEAE by preferred term): Part B, 40 mg; for participants reporting skin exfoliation / participants who experienced a TEAE / number of TEAEs reported: part B
Protocol: Participants were admitted to the clinical unit the day before doses were administered on days 1 and 8 and discharged on days 2 and 9, after collection of the 36‐hour postdose PK sample. The washout period between doses was 7 days. […] After dosing, participants were required to remain upright for at least 2 hours and refrain from food and drink for at least 4 hours; water was allowed after 2 hours.
Safety was assessed from the signing of informed consent until the end of study and included the following variables: treatment‐emergent adverse events (TEAEs), serious adverse events (SAEs), clinical laboratory tests (clinical chemistry, hematology, coagulation [part A only], and urinalysis), vital signs, 12‐lead ECG, primary Holter monitoring, and physical examinations (including evaluation of teeth and gingiva, and evaluation of palms and soles). Because of the mechanism of action of brensocatib, findings of hyperkeratosis, periodontitis/gingivitis, and other infections were reported as adverse events of special interest (AESIs). Renal function (part A only) was monitored by measuring serum creatinine and blood urea nitrogen, performing routine urinalysis, and measuring neutrophil gelatinase–associated lipocalin and cystatin.
Adverse events (AEs) observed before the first dosing were recorded as medical history. All medical history and AEs were coded using the Medical Dictionary for Regulatory Activities (version 21.1 or higher). A TEAE was defined as an AE that began or worsened in severity after at least 1 dose of study drug was administered. All AEs experienced by a participant were monitored until the event had resolved, any abnormal laboratory values returned to baseline or stabilized, a satisfactory explanation for the changes was identified, or the participant was lost to follow‐up.

[2] = tested on: organic anion and cation transporters; design: method as in unpublished data; details: ref unpublished data, read-out: half maximal inhibitory concentration; cited from earlier work

SMILES: Cn1c(=O)oc2ccc(-c3ccc(C[C@@H](C#N)NC(=O)[C@@H]4CNCCCO4)cc3)cc21 [Brensocatib]
- CYP induction (significant inducer or not) (CYP3A4): not a significant
- apparent permeability from apical side to basolateral side (Caco‐2 monolayers): 9.03 × 10^–6 cm/s
- Any TEAE ([1]; Japanese, Fasted (n=5)): 0 n (%)
- Serious TEAE ([1]; Japanese, Fasted (n=5)): 0 n (%)
- Severe TEAE ([1]; Japanese, Fasted (n=5)): 0 n (%)
- TEAE leading to death ([1]; Japanese, Fasted (n=5)): 0 n (%)
- TEAE leading to discontinuation ([1]; Japanese, Fasted (n=5)): 0 n (%)
- Abdominal pain upper (TEAE by preferred term) ([1]; Japanese, Fasted (n=10)): 0 n (%)
- Decreased appetite (TEAE by preferred term) ([1]; Japanese, Fasted (n=10)): 0 n (%)
- Dry skin (TEAE by preferred term) ([1]; Japanese, Fasted (n=10)): 0 n (%)
- Headache (TEAE by preferred term) ([1]; Japanese, Fasted (n=10)): 0 n (%)
- Skin exfoliation (TEAE by preferred term) ([1]; Japanese, Fasted (n=10)): 0 n (%)
- Skin lesion (TEAE by preferred term) ([1]; Japanese, Fasted (n=10)): 0 n (%)
- Any TEAE ([1]; Japanese, Fed (n=5)): 3 (60.0) n (%)
- Serious TEAE ([1]; Japanese, Fed (n=5)): 0 n (%)
- Severe TEAE ([1]; Japanese, Fed (n=5)): 0 n (%)
- TEAE leading to death ([1]; Japanese, Fed (n=5)): 0 n (%)
- TEAE leading to discontinuation ([1]; Japanese, Fed (n=5)): 0 n (%)
- Abdominal pain upper (TEAE by preferred term) ([1]; Japanese, Fed (n=9)): 1 (11.1) n (%)
- Decreased appetite (TEAE by preferred term) ([1]; Japanese, Fed (n=9)): 1 (11.1) n (%)
- Dry skin (TEAE by preferred term) ([1]; Japanese, Fed (n=9)): 0 n (%)
- Headache (TEAE by preferred term) ([1]; Japanese, Fed (n=9)): 1 (11.1) n (%)
- Skin exfoliation (TEAE by preferred term) ([1]; Japanese, Fed (n=9)): 1 (11.1) n (%)
- Skin lesion (TEAE by preferred term) ([1]; Japanese, Fed (n=9)): 0 n (%)
- Abdominal pain upper (TEAE by preferred term) ([1]; Japanese, Total (N=10)): 1 (10.0) n (%)
- Any TEAE ([1]; Japanese, Total (N=10)): 3 (30.0) n (%)
- Decreased appetite (TEAE by preferred term) ([1]; Japanese, Total (N=10)): 1 (10.0) n (%)
- Dry skin (TEAE by preferred term) ([1]; Japanese, Total (N=10)): 0 n (%)
- Headache (TEAE by preferred term) ([1]; Japanese, Total (N=10)): 1 (10.0) n (%)
- Serious TEAE ([1]; Japanese, Total (N=10)): 0 n (%)
- Severe TEAE ([1]; Japanese, Total (N=10)): 0 n (%)
- Skin exfoliation (TEAE by preferred term) ([1]; Japanese, Total (N=10)): 1 (10.0) n (%)
- Skin lesion (TEAE by preferred term) ([1]; Japanese, Total (N=10)): 0 n (%)
- TEAE leading to death ([1]; Japanese, Total (N=10)): 0 n (%)
- TEAE leading to discontinuation ([1]; Japanese, Total (N=10)): 0 n (%)
- Any TEAE ([1]; White, Fasted (n=5)): 1 (20.0) n (%)
- Serious TEAE ([1]; White, Fasted (n=5)): 0 n (%)
- Severe TEAE ([1]; White, Fasted (n=5)): 0 n (%)
- TEAE leading to death ([1]; White, Fasted (n=5)): 0 n (%)
- TEAE leading to discontinuation ([1]; White, Fasted (n=5)): 0 n (%)
- Abdominal pain upper (TEAE by preferred term) ([1]; White, Fasted (n=10)): 0 n (%)
- Decreased appetite (TEAE by preferred term) ([1]; White, Fasted (n=10)): 0 n (%)
- Dry skin (TEAE by preferred term) ([1]; White, Fasted (n=10)): 0 n (%)
- Headache (TEAE by preferred term) ([1]; White, Fasted (n=10)): 0 n (%)
- Skin exfoliation (TEAE by preferred term) ([1]; White, Fasted (n=10)): 0 n (%)
- Skin lesion (TEAE by preferred term) ([1]; White, Fasted (n=10)): 1 (10.0) n (%)
- Any TEAE ([1]; White, Fed (n=5)): 2 (40.0) n (%)
- Serious TEAE ([1]; White, Fed (n=5)): 0 n (%)
- Severe TEAE ([1]; White, Fed (n=5)): 0 n (%)
- TEAE leading to death ([1]; White, Fed (n=5)): 0 n (%)
- TEAE leading to discontinuation ([1]; White, Fed (n=5)): 0 n (%)
- Abdominal pain upper (TEAE by preferred term) ([1]; White, Fed (n=10)): 0 n (%)
- Decreased appetite (TEAE by preferred term) ([1]; White, Fed (n=10)): 0 n (%)
- Dry skin (TEAE by preferred term) ([1]; White, Fed (n=10)): 1 (10.0) n (%)
- Headache (TEAE by preferred term) ([1]; White, Fed (n=10)): 0 n (%)
- Skin exfoliation (TEAE by preferred term) ([1]; White, Fed (n=10)): 1 (10.0) n (%)
- Skin lesion (TEAE by preferred term) ([1]; White, Fed (n=10)): 0 n (%)
- Abdominal pain upper (TEAE by preferred term) ([1]; White, Total (N=10)): 0 n (%)
- Any TEAE ([1]; White, Total (N=10)): 3 (30.0) n (%)
- Decreased appetite (TEAE by preferred term) ([1]; White, Total (N=10)): 0 n (%)
- Dry skin (TEAE by preferred term) ([1]; White, Total (N=10)): 1 (10.0) n (%)
- Headache (TEAE by preferred term) ([1]; White, Total (N=10)): 0 n (%)
- Serious TEAE ([1]; White, Total (N=10)): 0 n (%)
- Severe TEAE ([1]; White, Total (N=10)): 0 n (%)
- Skin exfoliation (TEAE by preferred term) ([1]; White, Total (N=10)): 1 (10.0) n (%)
- Skin lesion (TEAE by preferred term) ([1]; White, Total (N=10)): 1 (10.0) n (%)
- TEAE leading to death ([1]; White, Total (N=10)): 0 n (%)
- TEAE leading to discontinuation ([1]; White, Total (N=10)): 0 n (%)
- participants reporting skin exfoliation ([1]; Japanese): 10.0%
- participants who experienced a TEAE ([1]; Japanese): 30.0%
- number of TEAEs reported ([1]; Japanese, fasted conditions): none
- number of TEAEs reported ([1]; Japanese, fed conditions): 4
- participants reporting skin exfoliation ([1]; White): 10.0%
- participants who experienced a TEAE ([1]; White): 30.0%
- number of TEAEs reported ([1]; White, fasted conditions): 1
- number of TEAEs reported ([1]; White, fed conditions): 2
- IC50 [2]: > 11 µM
